Measured values taken from PubChem BioAssay AID2060900 (Molecular Pharmacology Branch, DTP, NCI, 2025).

System: 521955-158-R2-J5-PDC complex spheroids, viability
Assay: Anticancer human tumor 521955-158-R2-J5-PDC patient-derived pancreatic carcinoma cell line growth inhibition [RAS]
Conditions: for IC50: curve of first compound; for viability, T/C: stronger effect = lower value
Excerpt: RAS pathway inhibitors in Combinations in Complex Spheroids
A high-throughput screen of multi-cell type tumor spheroids was designed to identify active combinations of RAS pathway inhibitors and targeted small molecules. Complex spheroids include a stromal component modeled by human endothelial cells (HUVEC) and fibroblasts modeled by human mesenchymal stem cells (MSCs). The concentration ranges selected for each drug and investigational agent were based upon clinically achievable concentrations if the clinical Cmax of the agent was known.
Compounds. The drugs and investigational agents: abemaciclib (NSC768073), cobimetinib (NSC768068), divarasib (GDC6063, NSC841802), docetaxel (NSC628503), GDC-1971 (RLY-1971, NSC841576), gemcitabine (NSC613327), inavolisib (NSC800729), ipatasertib (NSC767898), KB-0742 (NSC834161), MRTX-1133 (NSC836407), osimertinib (NSC779217), RMC-4630 (NSC839698), RMC-6236 (NSC851965), RMC-6291 (NSC852671), Ro-3306 (NSC812927), sapanisertib (NSC764658), SN-38 (NSC673596), staurosporine (NSC755774), SY5609 (NSC837396), and tovorafenib (DAY101, NSC766906), were obtained from the National Cancer Institute (NCI) Developmental Therapeutics Program Chemical Repository. The FDA-approved anticancer drug set is available from the NCI Developmental Therapeutics Program. […] The stock solutions were prepared in dimethyl sulfoxide (DMSO, Sigma-Aldrich, St. Louis, MO, cat. D2650) at 800-fold the tested concentration and stored at -70 degrees C prior to their use. All drugs and investigational agents were tested over a range starting from a high concentration at or near the clinical Cmax and decreasing in half-log increments. If the clinical Cmax for an agent had not been determined, the highest concentration tested was 10 microM.
Cell Culture. All cells were maintained in an incubator at 37 degrees C and 5% CO2 with 95% humidity. The PDC lines were cultured according to standard operating procedures established by the NCI PDMR. All PDCs were thawed and cultured in Matrigel-coated flasks prepared with a working solution of 1X Ham's F-12 nutrient mix, without supplementation (Invitrogen, Waltham, MA, cat. 11765054), 100 U/mL penicillin-streptomycin (Invitrogen, cat. 15140122), and 2.5% Matrigel (Corning Inc., Corning, NY, cat. 354248) for the first three passages. The 362531-283-R-J2-PDC and 782815-120-R-J1-PDC lines were cultured in 6C/Colon 1B media, which includes advanced DMEM/F-12 (Thermo Fisher Scientific, cat. 12634028), 10 mM HEPES (Thermo Fisher Scientific, cat. 15630080), 1X GlutaMAX supplement (Thermo Fisher Scientific, cat. 35050061), 0.1 mg/mL primocin (InvivoGen, San Diego, CA, cat. ant-pm-2), 10% defined fetal bovine serum, heat inactivated (HyClone Laboratories Inc., Logan, UT, cat. SH30070.03HI), 50% L-WRN conditioned media (ATCC, cat. CRL-3276), 1.25 mM N-Acetyl-L-cysteine (Sigma-Aldrich, cat. A9165), 10 mM nicotinamide (Sigma-Aldrich, cat. N0636), 1X B-27 supplement (Thermo Fisher Scientific, cat. 17504044), 1X N-2 supplement (Thermo Fisher Scientific, cat. 17502048), 50 ng/mL human EGF (Thermo Fisher Scientific, cat. PHG0311), and 10 microM Y-27632 dihydrochloride (Tocris Bioscience, cat. 1254). The K12877-001-R-J1-PDC line was cultured in 6I media, which includes all 6C/Colon 1B media plus 10 ng/mL human FGF-10 (PeproTech, cat. 100-26), 1 ng/mL human FGF-2 (PeproTech, cat. 100-18B), 1 µM prostaglandin E2 (Tocris Bioscience, cat. 2296), […] hydrocortisone (Sigma-Aldrich, cat. H4001), and […] bovine insulin (Sigma-Aldrich, cat. I6634). The K86415-001-R-J1-PDC line was cultured in 6D media, which includes all 6C/Colon 1B media components minus the L-WRN conditioned media. The 485176-168-R4-J1-PDC was cultured in PANC media, which includes all 6C/Colon 1B media plus 100 ng/mL human FGF-10 (PeproTech, cat. 100-26), 500 nM SB-431542 (Selleckchem, cat. S1067), and 10 nM gastrin (Tocris Bioscience, cat. 3006). […]
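Also: compound exposure lasted seven days before the viability read.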
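For viability, T/C in this document: spheroids also contain HUVEC endothelial cells and mesenchymal stem cells as stroma.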

`Cc1nc(N2CCC3(CC2)COC(C)C3N)c(CO)nc1Sc1ccnc(N)c1Cl` (configuration not stated) + CCn1c(-c2cc(N3CCN(C)CC3)cnc2C(C)OC)c2c3cc(ccc31)-c1csc(n1)CC(NC(=O)C1CC1C)C(=O)N1CCCC(N1)C(=O)OCC(C)(C)C2 was tested, and the IC50 (second compound 0.000949 µM) was under 31.6 nM, the IC50 (second compound 0.003 µM) was under 31.6 nM and the IC50 (second compound 0.00949 µM) was under 31.6 nM. For the same compound, the IC50 (second compound 0.03 µM) was under 31.6 nM, the IC50 (second compound 0.0949 µM) was under 31.6 nM and the IC50 (second compound 0.3 µM) was under 31.6 nM. It also gave a viability, T/C (second compound 0.000949 µM, first compound 0.0316 µM) of 39.5%, a viability, T/C (second compound 0.000949 µM, first compound 0.1 µM) of 31% and a viability, T/C (second compound 0.000949 µM, first compound 0.316 µM) of 32.7%. The viability, T/C (second compound 0.000949 µM, first compound 1 µM) was 39.2%, the viability, T/C (second compound 0.000949 µM, first compound 3.16 µM) was 36.4% and the viability, T/C (second compound 0.000949 µM, first compound 10 µM) was 33.3%. For the same compound, the viability, T/C (second compound 0.003 µM, first compound 0.0316 µM) was 36.2%, the viability, T/C (second compound 0.003 µM, first compound 0.1 µM) was 40.7% and the viability, T/C (second compound 0.003 µM, first compound 0.316 µM) was 35.3%. For the same compound, the viability, T/C (second compound 0.003 µM, first compound 1 µM) was 31.3%, the viability, T/C (second compound 0.003 µM, first compound 3.16 µM) was 23.8% and the viability, T/C (second compound 0.003 µM, first compound 10 µM) was 20.9%. It also gave a viability, T/C (second compound 0.00949 µM, first compound 0.0316 µM) of 27.4%, a viability, T/C (second compound 0.00949 µM, first compound 0.1 µM) of 32.1% and a viability, T/C (second compound 0.00949 µM, first compound 0.316 µM) of 25%. It also gave a viability, T/C (second compound 0.00949 µM, first compound 1 µM) of 18.3%, a viability, T/C (second compound 0.00949 µM, first compound 3.16 µM) of 18.7% and a viability, T/C (second compound 0.00949 µM, first compound 10 µM) of 10.8%. The viability, T/C (second compound 0.03 µM, first compound 0.0316 µM) was 15.9%, the viability, T/C (second compound 0.03 µM, first compound 0.1 µM) was 18.1% and the viability, T/C (second compound 0.03 µM, first compound 0.316 µM) was 12.8%. The viability, T/C (second compound 0.03 µM, first compound 1 µM) was 13.9%, the viability, T/C (second compound 0.03 µM, first compound 3.16 µM) was 11.8% and the viability, T/C (second compound 0.03 µM, first compound 10 µM) was 11.7%. For the same compound, the viability, T/C (second compound 0.0949 µM, first compound 0.0316 µM) was 14.3%, the viability, T/C (second compound 0.0949 µM, first compound 0.1 µM) was 11% and the viability, T/C (second compound 0.0949 µM, first compound 0.316 µM) was 15.1%. For the same compound, the viability, T/C (second compound 0.0949 µM, first compound 1 µM) was 7.6%, the viability, T/C (second compound 0.0949 µM, first compound 3.16 µM) was 11.3% and the viability, T/C (second compound 0.0949 µM, first compound 10 µM) was 10.7%. It also gave a viability, T/C (second compound 0.3 µM, first compound 0.0316 µM) of 9.07%, a viability, T/C (second compound 0.3 µM, first compound 0.1 µM) of 8.16% and a viability, T/C (second compound 0.3 µM, first compound 0.316 µM) of 8.08%. It also gave a viability, T/C (second compound 0.3 µM, first compound 1 µM) of 6.34%, a viability, T/C (second compound 0.3 µM, first compound 3.16 µM) of 7.5% and a viability, T/C (second compound 0.3 µM, first compound 10 µM) of 9.18%.
